These results are taken from paper PMC7449217, “The FDA-Approved Drug Nelfinavir Inhibits Lytic Cell-Free but Not Cell-Associated Nonlytic Transmission of Human Adenovirus” (Antimicrobial Agents and Chemotherapy, 2020).

Counter-ions that a name gives are not always drawn.

The term EC50 denotes the concentration needed to bring the measured effect to its halfway point.

For one series, the system named is CMT-93 cells. Put plainly: TC50, number of nuclei in noninfected treated cells. Format: cell-based, mouse. The note with it: noninfected CMT-93, nuclei, 4 dpi. How it is done: (§1) Per 96-well plate, 15,000 A549 cells, 10,000 HeLa cells, 30,000 HBECs, 30,000 HCE cells, or 30,000 CMT-93 cells were seeded in 100 μl of the respective supplemented medium and allowed to settle for 1 h at room temperature (RT) prior to cell culture incubation at 37°C with 5% CO2 and 95% humidity. The following day, the medium was replaced with 50 μl of the respective virus stock dilution giving rise to 5 to 50 plaques per 96-well plate. Fifty microliters of nelfinavir to obtain a 0.1 to 50 μM final concentration or the DMSO solvent control was also added, both in supplemented medium. For each experiment, a noninfected, treated control was performed. […] Plates were imaged on either an IXM-XL or an IXM-C automated high-throughput fluorescence microscope (Molecular Devices, San Jose, CA, USA) using a 4× objective in wide-field mode. Hoechst staining was recorded in the 4′,6-diamidino-2-phenylindole (DAPI) channel, the fluorescein isothiocyanate (FITC)/GFP channel was acquired for viral GFP, and the tetramethyl rhodamine isothiocyanate (TRITC)/Texas Red channel was acquired for hexon immunofluorescence staining.
(§2) The infection phenotype for each well was quantified using Plaque2.0 ([101]). The number of plaques was determined based on the infection signal (viral GFP or hexon immunofluorescence staining). […] The mean TI50 was calculated as the EC50/TC50 ratio of the means. […]

A further series deals with MAdV-1-pIX-FS2A-GFP. Put plainly: fluorescence-based plaque-forming assay, CMT-93 cells. It is filed as cell-based, mouse adenovirus 1. On the procedure: as §1, §2
The subject of another series is HSV-1-CMV-GFP. Kind of series: fluorescence-based plaque-forming assay, A549 cells. It is filed as cell-based, herpes simplex virus 1. How it is done:
as §1, §2

For series [1], the system named is HAdV-C2-dE3B-GFP-dADP. Put plainly: fluorescence-based plaque-forming assay, HeLa cells. Format: cell-based, human adenovirus. Conditions: for TI50 (TC50/IC50): HAdV-C2-dE3B-GFP-dADP in HeLa, 5 dpi, GFP. How it is done: (§3) Per 96-well plate, 15,000 A549 cells, 10,000 HeLa cells, 30,000 HBECs, 30,000 HCE cells, or 30,000 CMT-93 cells were seeded in 100 μl of the respective supplemented medium and allowed to settle for 1 h at room temperature (RT) prior to cell culture incubation at 37°C with 5% CO2 and 95% humidity. The following day, the medium was replaced with 50 μl of the respective virus stock dilution giving rise to 5 to 50 plaques per 96-well plate. Fifty microliters of nelfinavir to obtain a 0.1 to 50 μM final concentration or the DMSO solvent control was also added, both in supplemented medium. For each experiment, a noninfected, treated control was performed. For uphill plaque assays, the medium volume was increased to 150 μl with identical virus and drug concentrations. For wash-in/washout experiments, the virus was incubated on cells in supplemented medium for 1 h at 37°C, cells were washed with PBS, and a 100-μl drug dilution in supplemented medium was added. All experiments were performed in four technical replicates or as indicated. Cells were incubated under standard cell culture conditions. At the indicated times postinfection, the cells were fixed, and the nuclei were stained for 1 h at RT by the addition of 33 μl 16% (wt/vol) paraformaldehyde (PFA) and 4 μg/ml Hoechst 33342 (Sigma-Aldrich, St. Louis, MO, USA) in PBS. Cells were washed three times with PBS and stored in PBS supplemented with 0.02% N3 for infections with viruses harboring a GFP transgene. For wild-type (wt) viruses, cells were quenched in PBS supplemented with 50 mM NH4Cl, permeabilized using 0.2% (vol/vol) Triton X-100 in PBS, and blocked with 0.5% (wt/vol) bovine serum albumin (BSA) in PBS. Cells were incubated with 381.7 ng/ml mouse anti-HAdV hexon protein antibody (Mab8052; Sigma-Aldrich, St. Louis, MO, USA) and subsequently stained using 2 μg/ml goat anti-mouse-Alexa Fluor 594 (catalog number A21203 or A32742; Thermo Fisher Scientific, Waltham, MA, USA). Plates were imaged on either an IXM-XL or an IXM-C automated high-throughput fluorescence microscope (Molecular Devices, San Jose, CA, USA) using a 4× objective in wide-field mode. Hoechst staining was recorded in the 4′,6-diamidino-2-phenylindole (DAPI) channel, the fluorescein isothiocyanate (FITC)/GFP channel was acquired for viral GFP, and the tetramethyl rhodamine isothiocyanate (TRITC)/Texas Red channel was acquired for hexon immunofluorescence staining.
(§4) The infection phenotype for each well was quantified using Plaque2.0 ([101]). The number of plaques was determined based on the infection signal (viral GFP or hexon immunofluorescence staining). Nuclei stained with Hoechst were segmented by using CellProfiler ([178]). Infected nuclei were classified based on the median infection signal per nucleus in CellProfiler. Data were plotted, and the EC50 (infected and treated cells), the TC50 (noninfected, treated cells), as well as the corresponding standard errors (SE) were determined using curve fitting in GraphPad (version 8.1.2; GraphPad Software, Inc.) using three-parameter inhibitor concentration-versus-response nonlinear regression. The mean TI50 was calculated as the […] ratio of the means. The TI50 SE was calculated by error propagation.

Series [2] has as its system HAdV-C2-dE3B-GFP. Described as above. Format: cell-based, human adenovirus. Conditions: for TI50 (TC50/IC50): HAdV-C2-dE3B-GFP in HeLa, 4 dpi, GFP. How it is done:
as §3, §4

In a further series the test system is HAdV-B3-pIX-FS2A-GFP. Put plainly: fluorescence-based plaque-forming assay, HBEC. It is filed as cell-based, human adenovirus. On the procedure:
as §3, §4

The test system of series [3] is HAdV-C2-dE3B-GFP-dADP. Put plainly: fluorescence-based plaque-forming assay, HBEC. The note with it: for TI50 (TC50/IC50): HAdV-C2-dE3B-GFP-dADP in HBEC, 4 dpi, GFP. It is filed as cell-based, human adenovirus. How it is done: as §3, §4
A further series relates to HAdV-B35-pIX-FS2A-GFP. Put plainly: fluorescence-based plaque-forming assay, HBEC. It is filed as cell-based, human adenovirus. On the procedure: as §3, §4
The subject of series [4] is HAdV-C2-dE3B-GFP. Kind of series: fluorescence-based plaque-forming assay, HBEC. Format: cell-based, human adenovirus. Conditions: for TI50 (TC50/IC50): HAdV-C2-dE3B-GFP in HBEC, 4 dpi, GFP. On the procedure:
as §3, §4

For the next series, the system named is A549 cells. Conditions: cited from earlier work.

Regarding `Cc1c(O)cccc1C(=O)N[C@@H](CSc1ccccc1)[C@H](O)CN1C[C@H]2CCCC[C@H]2C[C@H]1C(=O)NC(C)(C)C` [Nelfinavir, Nelfinavir mesylate], the TC50 came out at 21.29 µM in the series with CMT-93 cells (line MAdV-1-pIX-FS2A-GFP) and 26.07 µM in the series on CMT-93 cells (line MAdV-3-pIX-FS2A-GFP). Moreover, the “TI50 (TC50/IC50)” value in the series on MAdV-1-pIX-FS2A-GFP (MAdV-1-pIX-FS2A-GFP in CMT-93, 4 dpi, GFP) is listed as 1.03; with HSV-1-CMV-GFP (HSV-1-CMV-GFP in A549, 1 dpi, GFP), 17.25; in the series with HAdV-C2-dE3B-GFP-dADP [1], 8.91; with HAdV-C2-dE3B-GFP-dADP [1] (listed as nelfinavir) it was 8.9; with HAdV-C2-dE3B-GFP [2] it was 61.03; in the series on HAdV-C2-dE3B-GFP [2] (listed as nelfinavir), 61.0. Besides, the “TI50 (TC50/IC50)” value in the series on HAdV-B3-pIX-FS2A-GFP (HAdV-B3-pIX-FS2A-GFP in HBEC, 8 dpi, GFP) was 1.99; with HAdV-C2-dE3B-GFP-dADP [3] it was 4.56; in the series on HAdV-C2-dE3B-GFP-dADP [3] (listed as nelfinavir) it was 4.6; in the series on HAdV-B35-pIX-FS2A-GFP (HAdV-B35-pIX-FS2A-GFP in HBEC, 6 dpi, GFP) it was 1.91; with HAdV-C2-dE3B-GFP [4] it was 55.18; with HAdV-C2-dE3B-GFP [4] (listed as nelfinavir) it was 55.2. Also, the EC50 with MAdV-1-pIX-FS2A-GFP (Murine mastadenovirus A, CMT93) is 20.7 µM; in the series with HSV-1-CMV-GFP (Human alphaherpesvirus 1, A549), 2.87 µM; in the series with HAdV-C2-dE3B-GFP-dADP [1] (Human adenovirus sp., HeLa), 4.68 µM; in the series on HAdV-C2-dE3B-GFP [2] (Human adenovirus sp., HeLa) it was 0.49 µM; with HAdV-B3-pIX-FS2A-GFP (Human adenovirus sp.), 6.41 µM; in the series on HAdV-C2-dE3B-GFP-dADP [3] (Human adenovirus sp.), 2.72 µM. The results for the EC50 in the series on HAdV-B35-pIX-FS2A-GFP (Human adenovirus sp.) and in the series with HAdV-C2-dE3B-GFP [4] (Human adenovirus sp.) were 6.99 µM and 0.53 µM, respectively. The Toxic entry in the series on A549 cells was “no”.
